From patent US9254296B2, “Pharmaceutical composition comprising vitamin D analogue and cosolvent-surfactant mixture” (LEO PHARMA A/S, priority 2009, dated 2016)

Experiments:
[1] = tested on: gene encoding cathelicidin; assay: Cathelicidin target gene activation assay on reconstructed human epidermis; type: cell-based; settings: 5%, 10% or 15% by weight of glycerol in the composition
Excerpt: In psoriasis, the level of cathelicidin is increased in lesional skin of psoriasis patients. […] This finding has been utilized to develop an assay in which the uptake and biological activity of calcipotriol in human keratinocytes from the tested compositions has been determined by measuring the level of induction of the gene encoding cathelicidin.
In the assay, compositions A, B, C, F, G, I, J, K, L prepared as described in Example 1 above were applied topically in triplicate on reconstructed human epidermis consisting of normal human keratinocytes cultured for 12 days on 0.5 cm^2 polycarbonate filters (available from SkinEthic® Laboratories, Nice, France) in an amount of 10 μl. The tissue was treated for two days followed by separation of the epidermis from the polycarbonate filter and snap-frozen in liquid nitrogen. RNA was extracted from the cells and cDNA synthesized by conventional procedures. Quantitative real-time PCR (qPCR) was then performed using the following assays from Applied Biosystems: CAMP Hs0018038_ml and GAPDH Hs99999905_ml. The expression levels of cathelicidin were normalized to GAPDH and a relative quantification was made by comparison with Daivonex® ointment.

[2] = tested on: IL-1α; assay: Release of IL-1α from calcipotriol ointment containing glycerol; settings: 5%, 10%, 15% by weight of glycerol in a calcipotriol ointment
[3] = one study, M. Hannuksela et al. 1975; cited from earlier work

| SMILES | effect on biological activity of calcipotriol (expression of cathelicidin) [1] | release of IL-1α [2] | number of irritant reactions [3] [%] |
| --- | --- | --- | --- |
| OCC(O)CO [glycerol] | potentiating the biological activity of calcipotriol | reduce the release of IL-1α in a dose-dependent manner |  |
| CC(O)CO (stereo not drawn) [propylene glycol] |  |  | 12.5 |
